# From patent US20140227366A1, “CARRIER MATERIAL FOR IMPROVING THE PERSISTANCE OF BIOCIDES” (priority 2011, published 2014)
# System: aphids (Aphis craccivora)
# Test: Efficacy/penetration depth into soils: aphid mortality on chickpeas planted in soil zones from a watered soil column
# Type: in vivo
# Settings: top 6 cm soil with 0.5 mg/ai TMX, watering rate 255 l/m^2, chickpeas infected with Aphis craccivora, average of multiple experiments
# Experimental: The penetration depth of TMX with and without the improvement system was investigated using the test setup described below.
# In this connection, a cylinder (diameter approx. 5.5 cm) was filled to approx. 21 cm with liquid-saturated soil. The soil was divided into three zones of 7 cm each, which were called Zone I (uppermost soil layer), Zone II (middle soil layer), and Zone III (bottommost soil layer).
# Subsequently, the cylinder was filled up with 6 cm soil that had been mixed once with 0.5 mg/ai TMX (comparison test), and once with 6 cm soil with 0.5 mg/ai TMX and 2 kg/m^2 improvement system (invention example).
# The cylinder was now watered (watering rate 255 l/m^2) until the water had reached the bottom, i.e. complete watering had been achieved.
# Subsequently, the soil of Zone I (uppermost zone) to Zone III (bottommost zone) was removed, and chickpeas that had been infected with aphids (Aphis craccivora) were planted in the soil. Now the mortality rate of the aphids was measured, as listed in Table I (average values on the basis of multiple experiments).
smiles,measurement,setting,value
"CN1COCN(Cc2cnc(Cl)s2)/C1=N/[N+](=O)[O-] [Comparison example, 3-[(2-chloro-1,3-thiazol-5-yl)methyl]-5-methyl-N-nitro-1,3,5-oxadioazinan-4-imine]","mortality rate of the aphids, Zone I","Zone I (uppermost soil layer, 7 cm)",93%
same,"mortality rate of the aphids, Zone II","Zone II (middle soil layer, 7 cm)",70%
same,"mortality rate of the aphids, Zone III","Zone III (bottommost soil layer, 7 cm)",5%
